# Assay results reported in US9169310B2 (Zealand Pharma A/S, priority 2010, dated 2015).
# Starred links: 1 amine or outer side, 2 acyl side, 3 side chain; linkers in the order of their positions; H or OH if unused. Non-standard residues stand in square brackets, D forms with d. Residues, ends and D or L forms follow the SMILES beside them. Groups on a side chain read outwards from the residue. *: point of attachment. Ala(pyrazol-1-yl) = N[C@@H](Cn1cccn1)C(=O)O; Ala(4-thiazolyl) = N[C@@H](Cc1cscn1)C(=O)O; γGlu = O=C(O)[C@H](CCC(=O)[*:2])N[*:1]; X1 = O=C([C@H](Cn1cncn1)N[*:1])[*:2]; Palmitoyl = CCCCCCCCCCCCCCCC(=O)*; Aib = CC(C)(N)C(=O)O
# Molecular target: T1, human GLP-1R (Homo sapiens, UniProt P43220)
# T1 construct: expressed in transfected cells
# T1 sequence (P43220 24-463): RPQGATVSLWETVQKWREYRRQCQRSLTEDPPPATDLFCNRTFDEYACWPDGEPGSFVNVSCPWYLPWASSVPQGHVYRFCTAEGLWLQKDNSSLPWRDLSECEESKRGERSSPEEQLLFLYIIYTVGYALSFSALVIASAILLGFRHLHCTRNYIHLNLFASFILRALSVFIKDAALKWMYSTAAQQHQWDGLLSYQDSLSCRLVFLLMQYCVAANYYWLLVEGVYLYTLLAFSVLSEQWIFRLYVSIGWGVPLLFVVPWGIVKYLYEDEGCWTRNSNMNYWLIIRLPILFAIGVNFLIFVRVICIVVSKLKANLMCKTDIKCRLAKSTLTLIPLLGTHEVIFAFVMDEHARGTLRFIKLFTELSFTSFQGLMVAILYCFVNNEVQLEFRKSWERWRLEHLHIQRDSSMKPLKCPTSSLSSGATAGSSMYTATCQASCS
# Assay: GLP-1 receptor efficacy assay (cAMP formation, FlashPlate cAMP kit)
# Type: cell-based
# Conditions: HEK293 cells expressing human GLP-1R; cAMP formed, 15 min at 37° C.
# Protocol: The 5′-end primers additionally encoded a near Kozak consensus sequence to ensure efficient translation.
# 48 hr after transfection, cells were seeded for limited dilution cloning and selected with 1 mg/ml G418 in the culture medium.
row,Structure (SMILES),EC50
1,CCCCCCCCCCCCCCCC(=O)N[C@@H](CCC(=O)NCCCC[C@H](NC(=O)[C@H](CO)NC(=O)[C@H](CC(=O)O)NC(=O)[C@H](CC(C)C)NC(=O)[C@H](Cc1ccc(O)cc1)NC(=O)[C@H](CCCCN)NC(=O)[C@H](CO)NC(=O)[C@H](Cc1ccc(O)cc1)NC(=O)[C@H](CC(=O)O)NC(=O)[C@H](CO)NC(=O)[C@@H](NC(=O)[C@H](Cc1ccccc1)NC(=O)[C@@H](NC(=O)CNC(=O)[C@H](Cc1c[nH]cn1)NC(=O)C(C)(C)NC(=O)[C@@H](N)Cc1c[nH]cn1)[C@@H](C)O)[C@@H](C)O)C(=O)N[C@@H](C)C(=O)N[C@@H](C)C(=O)N[C@@H](Cc1c[nH]cn1)C(=O)N[C@@H](CC(=O)O)C(=O)N[C@@H](Cc1ccccc1)C(=O)N[C@H](C(=O)N[C@@H](CCC(=O)O)C(=O)N[C@@H](Cc1c[nH]c2ccccc12)C(=O)N[C@@H](CC(C)C)C(=O)N[C@@H](CC(C)C)C(=O)N[C@@H](CO)C(=O)N[C@@H](C)C(N)=O)C(C)C)C(=O)O [Compound 1] (H-H[Aib]HGTFTSDYSKYLDSK([γGlu-Palmitoyl])AAHDFVEWLLSA-NH2),0.21 nM
2,CCCCCCCCCCCCCCCC(=O)N[C@@H](CCC(=O)NCCCC[C@H](NC(=O)[C@H](CO)NC(=O)[C@H](CC(=O)O)NC(=O)[C@H](CC(C)C)NC(=O)[C@H](Cc1ccc(O)cc1)NC(=O)[C@H](CCCCN)NC(=O)[C@H](CO)NC(=O)[C@H](Cc1ccc(O)cc1)NC(=O)[C@H](CC(=O)O)NC(=O)[C@H](CO)NC(=O)[C@@H](NC(=O)[C@H](Cc1ccccc1)NC(=O)[C@@H](NC(=O)CNC(=O)[C@H](C)NC(=O)C(C)(C)NC(=O)[C@@H](N)Cc1c[nH]cn1)[C@@H](C)O)[C@@H](C)O)C(=O)N[C@@H](C)C(=O)N[C@@H](C)C(=O)N[C@@H](Cc1c[nH]cn1)C(=O)N[C@@H](CC(=O)O)C(=O)N[C@@H](Cc1ccccc1)C(=O)N[C@H](C(=O)N[C@@H](CCC(=O)O)C(=O)N[C@@H](Cc1c[nH]c2ccccc12)C(=O)N[C@@H](CC(C)C)C(=O)N[C@@H](CC(C)C)C(=O)N[C@@H](CO)C(=O)N[C@@H](C)C(N)=O)C(C)C)C(=O)O [Compound 17] (H-H[Aib]AGTFTSDYSKYLDSK([γGlu-Palmitoyl])AAHDFVEWLLSA-NH2),0.09 nM
3,CCCCCCCCCCCCCCCC(=O)N[C@@H](CCC(=O)NCCCC[C@H](NC(=O)[C@H](CO)NC(=O)[C@H](CC(=O)O)NC(=O)[C@H](CC(C)C)NC(=O)[C@H](Cc1ccc(O)cc1)NC(=O)[C@H](CCCCN)NC(=O)[C@H](CO)NC(=O)[C@H](Cc1ccc(O)cc1)NC(=O)[C@H](CC(=O)O)NC(=O)[C@H](CO)NC(=O)[C@@H](NC(=O)[C@H](Cc1ccccc1)NC(=O)[C@@H](NC(=O)CNC(=O)[C@H](CO)NC(=O)C(C)(C)NC(=O)[C@@H](N)Cc1c[nH]cn1)[C@@H](C)O)[C@@H](C)O)C(=O)N[C@@H](C)C(=O)N[C@@H](C)C(=O)N[C@@H](Cc1c[nH]cn1)C(=O)N[C@@H](CC(=O)O)C(=O)N[C@@H](Cc1ccccc1)C(=O)N[C@H](C(=O)N[C@@H](CCC(=O)O)C(=O)N[C@@H](Cc1c[nH]c2ccccc12)C(=O)N[C@@H](CC(C)C)C(=O)N[C@@H](CC(C)C)C(=O)N[C@@H](CO)C(=O)N[C@@H](C)C(N)=O)C(C)C)C(=O)O [Compound 18] (H-H[Aib]SGTFTSDYSKYLDSK([γGlu-Palmitoyl])AAHDFVEWLLSA-NH2),0.09 nM
4,CCCCCCCCCCCCCCCC(=O)N[C@@H](CCC(=O)NCCCC[C@H](NC(=O)[C@H](CO)NC(=O)[C@H](CC(=O)O)NC(=O)[C@H](CC(C)C)NC(=O)[C@H](Cc1ccc(O)cc1)NC(=O)[C@H](CCCCN)NC(=O)[C@H](CO)NC(=O)[C@H](Cc1ccc(O)cc1)NC(=O)[C@H](CC(=O)O)NC(=O)[C@H](CO)NC(=O)[C@@H](NC(=O)[C@H](Cc1ccccc1)NC(=O)[C@@H](NC(=O)CNC(=O)[C@H](Cc1cscn1)NC(=O)C(C)(C)NC(=O)[C@@H](N)Cc1c[nH]cn1)[C@@H](C)O)[C@@H](C)O)C(=O)N[C@@H](C)C(=O)N[C@@H](C)C(=O)N[C@@H](Cc1c[nH]cn1)C(=O)N[C@@H](CC(=O)O)C(=O)N[C@@H](Cc1ccccc1)C(=O)N[C@H](C(=O)N[C@@H](CCC(=O)O)C(=O)N[C@@H](Cc1c[nH]c2ccccc12)C(=O)N[C@@H](CC(C)C)C(=O)N[C@@H](CC(C)C)C(=O)N[C@@H](CO)C(=O)N[C@@H](C)C(N)=O)C(C)C)C(=O)O [Compound 23] (H-H[Aib][Ala(4-thiazolyl)]GTFTSDYSKYLDSK([γGlu-Palmitoyl])AAHDFVEWLLSA-NH2),0.11 nM
5,CCCCCCCCCCCCCCCC(=O)N[C@@H](CCC(=O)NCCCC[C@H](NC(=O)[C@H](CO)NC(=O)[C@H](CC(=O)O)NC(=O)[C@H](CC(C)C)NC(=O)[C@H](Cc1ccc(O)cc1)NC(=O)[C@H](CCCCN)NC(=O)[C@H](CO)NC(=O)[C@H](Cc1ccc(O)cc1)NC(=O)[C@H](CC(=O)O)NC(=O)[C@H](CO)NC(=O)[C@@H](NC(=O)[C@H](Cc1ccccc1)NC(=O)[C@@H](NC(=O)CNC(=O)[C@H](Cn1cncn1)NC(=O)C(C)(C)NC(=O)[C@@H](N)Cc1c[nH]cn1)[C@@H](C)O)[C@@H](C)O)C(=O)N[C@@H](C)C(=O)N[C@@H](C)C(=O)N[C@@H](Cc1c[nH]cn1)C(=O)N[C@@H](CC(=O)O)C(=O)N[C@@H](Cc1ccccc1)C(=O)N[C@H](C(=O)N[C@@H](CCC(=O)O)C(=O)N[C@@H](Cc1c[nH]c2ccccc12)C(=O)N[C@@H](CC(C)C)C(=O)N[C@@H](CC(C)C)C(=O)N[C@@H](CO)C(=O)N[C@@H](C)C(N)=O)C(C)C)C(=O)O [Compound 25] (H-H[Aib][X1]GTFTSDYSKYLDSK([γGlu-Palmitoyl])AAHDFVEWLLSA-NH2),0.09 nM
6,CCCCCCCCCCCCCCCC(=O)N[C@@H](CCC(=O)NCCCC[C@H](NC(=O)[C@H](CO)NC(=O)[C@H](CC(=O)O)NC(=O)[C@H](CC(C)C)NC(=O)[C@H](Cc1ccc(O)cc1)NC(=O)[C@H](CCCCN)NC(=O)[C@H](CO)NC(=O)[C@H](Cc1ccc(O)cc1)NC(=O)[C@H](CC(=O)O)NC(=O)[C@H](CO)NC(=O)[C@@H](NC(=O)[C@H](Cc1ccccc1)NC(=O)[C@@H](NC(=O)CNC(=O)[C@H](Cn1cccn1)NC(=O)C(C)(C)NC(=O)[C@@H](N)Cc1c[nH]cn1)[C@@H](C)O)[C@@H](C)O)C(=O)N[C@@H](C)C(=O)N[C@@H](C)C(=O)N[C@@H](Cc1c[nH]cn1)C(=O)N[C@@H](CC(=O)O)C(=O)N[C@@H](Cc1ccccc1)C(=O)N[C@H](C(=O)N[C@@H](CCC(=O)O)C(=O)N[C@@H](Cc1c[nH]c2ccccc12)C(=O)N[C@@H](CC(C)C)C(=O)N[C@@H](CC(C)C)C(=O)N[C@@H](CO)C(=O)N[C@@H](C)C(N)=O)C(C)C)C(=O)O [Compound 28] (H-H[Aib][Ala(pyrazol-1-yl)]GTFTSDYSKYLDSK([γGlu-Palmitoyl])AAHDFVEWLLSA-NH2),0.11 nM
